Experimental findings from patent US10035800B2 (AbbVie Inc., priority 2013, dated 2018) are described below.

Assay [1] concerns the target T1, BRD4 (BDI_K57-E168) (Homo sapiens, UniProt O60885).
T1 construct: BD1: amino acids K57-E168; made in house
The assay is described as follows: TR-FRET bromodomain binding assay, first bromodomain of BRD4. The conditions noted are these: TR-FRET assay protocol G (compound 0.92 μM-15 pM); 100 nM probe. An outline of the steps: (§1)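 His-tagged BRD4 bromodomain (8 nM) was incubated with Eu-anti-His antibody (1 nM) and an Alexa647-labelled BET-inhibitor probe (100 nM for BDI, 30 nM for BDII) in pH 6.0 phosphate buffer with 2% DMSO for 1 h at room temperature. TR-FRET ratio was read, IC50 fitted by 4-parameter logistic, then converted to Ki.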
Background: Time-resolved FRET reads energy transfer from a long-lived donor to a nearby acceptor.

Assay [2] concerns the target T2, BRD4 (BDII_E352-M457) (Homo sapiens, UniProt O60885).
T2 construct: protocol; made in house
The assay is described as follows: TR-FRET bromodomain binding assay, second bromodomain of BRD4. As to conditions: TR-FRET assay protocol G (compound 0.92 μM-15 pM); 30 nM probe. An outline of the steps:
as §1

For assay [3], the system named is breast cancer cell line MX-1. As to the kind of experiment: MX-1 cell line proliferation assay. The conditions noted are these: MX-1 cells, 3-day proliferation assay, Cell Titer Glo; read-out: Cellular proliferation: EC50. Type of assay: cell-based. The method, boiled down:
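EC50 comes from sigmoidal fits of Cell Titer Glo luminescence relative to DMSO controls, with assay MSR 2.1. Ten-point 3-fold dilutions (top 3 or 1 μM final) were added to MX-1 breast cancer cells after overnight adhesion. Cells were at 5000/well and proliferation ran 3 days.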
In general terms: ATP-based viability assays read luminescence as a measure of living cells.

The subject of assay [4] is IL-6 (Interleukin-6) production. As to the kind of experiment: LPS (lipopolysaccharide) induced IL-6 production mouse assay. Type of assay: in vivo, mice. The conditions noted are these: mouse strain CD1; oral administration 1 h before LPS 2.5 mg/kg ip; serum 2 h after LPS; p < 0.05 vs vehicle. How it is done: LPS (Lipopolysaccharide) Induced IL-6 Production Mouse Assay
Compounds of the Examples listed in Table 2 were assayed for their ability to inhibit LPS (lipopolysaccharide) induced IL-6 (Interleukin-6) production in mice. Fox Chase SCID® female mice (Charles Rivers Labs, 5 per group) or CD1 female mice (5 per group) received an intraperitoneal challenge of lipopolysaccharide (2.5 mg/kg, L2630 E. coli 0111:B4) one hour after oral administration of compounds. Mice were euthanized 2 hours after lipopolysaccharide injection, blood was removed by cardiac puncture, and then the serum harvested from the blood samples was frozen at −80° C. On the day of the assay the serum samples were brought to room temperature and then diluted 1:20 in phosphate-buffered saline containing 2% bovine serum albumin. Interleukin-6 measurements were performed using a cytokine assay from Meso Scale Discovery (Gaithersburg, Md.) for mouse serum analysis according to the manufacturer's protocol and read on a SECTOR Imager 6000 (Meso Scale Discovery, Gaithersburg, Md.) instrument. Statistical analysis was performed using Prism software (version 5.0) incorporating Dunnett's one way ANOVA. The IL-6 mean and standard deviation of the group of vehicle treated animals were compared with the IL-6 mean and standard deviation of the group treated with drug. A p value <0.05 means that there is less than a 5% probability that the mean values in the two groups are equal.

Bounds are passed on as bounds.

Usually Ki stands for the equilibrium dissociation constant of an inhibitor or competing ligand from its target. Lower therefore signals higher affinity. For “4-(2,4-difluorophenyl)-10-methyl-7-((methylsulfonyl)methyl)-11-oxo-3,4,10,11-tetrahydro-1H-1,4,10-triazadibenzo[cd,f]azulene-5-carbonitrile [Example 206]”, the Ki is 0.96 nM in assay [1] and 0.51 nM in assay [2]. In addition, the EC50 in assay [3] was 1.41 nM. Also, the “% inhibition of LPS induced IL-6 production” value in assay [4] amounted to 76%.

Regarding `CNC(=O)c1cc(CS(C)(=O)=O)cc2c1N(c1ccc(F)cc1F)Cc1c[nH]c3c(=O)n(C)cc-2c13` [Example 241, 4-(2,4-difluorophenyl)-N,10-dimethyl-7-((methylsulfonyl)methyl)-11-oxo-3,4,10,11-tetrahydro-1H-1,4,10-triazadibenzo[cd,f]azulene-5-carboxamide], the Ki was 3.07 nM in assay [1] and 1.76 nM in assay [2]. The EC50 in assay [3] was determined as 51.5 nM.

For `CN(C)C(=O)c1cc(CS(C)(=O)=O)cc2c1N(c1ccc(F)cc1F)Cc1c[nH]c3c(=O)n(C)cc-2c13` [Example 242, 4-(2,4-difluorophenyl)-N,N,10-trimethyl-7-((methylsulfonyl)methyl)-11-oxo-3,4,10,11-tetrahydro-1H-1,4,10-triazadibenzo[cd,f]azulene-5-carboxamide], the figures for the Ki in assay [1] and in assay [2] were 12.6 nM and 3.78 nM, respectively. For the same molecule, in assay [3], the EC50 was above 1000 nM.

With `Cn1cc2c3c(c[nH]c3c1=O)CN(c1cccnc1)c1ccc(CS(C)(=O)=O)cc1-2` [Example 244, 10-methyl-7-((methylsulfonyl)methyl)-4-(pyridin-3-yl)-3,4-dihydro-1H-1,4,10-triazadibenzo[cd,f]azulen-11(10H)-one], the Ki in assay [1] was determined as 0.43 nM; in assay [2] it was 1.02 nM. In addition, the EC50 in assay [3] was 2.13 nM.

For the molecule `Cn1cc2c3c(c[nH]c3c1=O)CN(c1ccc(Cl)cn1)c1ccc(CS(C)(=O)=O)cc1-2` [Example 245, 4-(5-chloropyridin-2-yl)-10-methyl-7-((methylsulfonyl)methyl)-3,4-dihydro-1H-1,4,10-triazadibenzo[cd,f]azulen-11(10H)-one], the Ki amounted to 0.54 nM in assay [1] and 0.94 nM in assay [2]. For the same molecule, in assay [3], the EC50 amounted to 1.09 nM.

As for `Cn1cc2c3c(c[nH]c3c1=O)CN(Cc1ccccc1)c1ccc(CS(C)(=O)=O)cc1-2` [Example 247, 4-benzyl-10-methyl-7-((methylsulfonyl)methyl)-3,4-dihydro-1H-1,4,10-triazadibenzo[cd,f]azulen-11(10H)-one], the Ki in assay [1] came out at 2.22 nM; in assay [2] it was 2.42 nM. Further, the EC50 in assay [3] stood at 4.94 nM.

In the case of `Cn1cc2c3c(c[nH]c3c1=O)CN(c1cncnc1)c1ccc(CS(C)(=O)=O)cc1-2` [Example 248, 10-methyl-7-((methylsulfonyl)methyl)-4-(pyrimidin-5-yl)-3,4-dihydro-1H-1,4,10-triazadibenzo[cd,f]azulen-11(10H)-one], the figures for the Ki in assay [1] and in assay [2] were 3.39 nM and 3.29 nM, respectively. Further, the EC50 in assay [3] worked out at 25.6 nM.

Regarding `Cn1cc2c3c(c[nH]c3c1=O)CN(Cc1ccccn1)c1ccc(CS(C)(=O)=O)cc1-2` [Example 249, 10-methyl-7-((methylsulfonyl)methyl)-4-(pyridin-2-ylmethyl)-3,4-dihydro-1H-1,4,10-triazadibenzo[cd,f]azulen-11(10H)-one], the Ki in assay [1] turned out to be 6.1 nM; in assay [2], 19.1 nM. In addition, the EC50 in assay [3] is 17.7 nM.

Regarding `Cn1cc2c3c(c[nH]c3c1=O)CN(Cc1cccnn1)c1ccc(CS(C)(=O)=O)cc1-2` [Example 250, 10-methyl-7-((methylsulfonyl)methyl)-4-(pyridazin-3-ylmethyl)-3,4-dihydro-1H-1,4,10-triazadibenzo[cd,f]azulen-11(10H)-one], the Ki in assay [1] was found to be 8.8 nM; in assay [2], 22.5 nM. Moreover, the EC50 in assay [3] was 845 nM.

As for `Cn1cc2c3c(c[nH]c3c1=O)CN(c1ccc(C(F)(F)F)cn1)c1ccc(CS(C)(=O)=O)cc1-2` [Example 253, 10-methyl-7-((methylsulfonyl)methyl)-4-(5-(trifluoromethyl)pyridin-2-yl)-3,4-dihydro-1H-1,4,10-triazadibenzo[cd,f]azulen-11(10H)-one], the Ki in assay [1] was 0.7 nM; in assay [2] it was 1.18 nM. Besides, the EC50 in assay [3] amounted to 1.3 nM.

In the case of `Cn1ccc(CN2Cc3c[nH]c4c(=O)n(C)cc(c34)-c3cc(CS(C)(=O)=O)ccc32)n1` [Example 255, 10-methyl-4-((1-methyl-1H-pyrazol-3-yl)methyl)-7-((methylsulfonyl)methyl)-3,4-dihydro-1H-1,4,10-triazadibenzo[cd,f]azulen-11(10H)-one], the figures for the Ki in assay [1] and in assay [2] were 4.53 nM and 7.33 nM, respectively. The EC50 in assay [3] is 34.3 nM.

As to `Cn1cc2c3c(c[nH]c3c1=O)CN(CC(C)(C)CN1CCOCC1)c1ccc(CS(C)(=O)=O)cc1-2` [Example 257, 4-(2,2-dimethyl-3-morpholinopropyl)-10-methyl-7-((methylsulfonyl)methyl)-3,4-dihydro-1H-1,4,10-triazadibenzo[cd,f]azulen-11(10H)-one], the Ki in assay [1] stood at 2.34 nM; in assay [2], 9.19 nM. For the same molecule, in assay [3], the EC50 is 21.1 nM.

As for `Cn1cc2c3c(c[nH]c3c1=O)CN(c1ncc(F)cn1)c1ccc(CS(C)(=O)=O)cc1-2` [Example 258, 4-(5-fluoropyrimidin-2-yl)-10-methyl-7-((methylsulfonyl)methyl)-3,4-dihydro-1H-1,4,10-triazadibenzo[cd,f]azulen-11(10H)-one], the Ki came to 0.92 nM in assay [1] and 2.39 nM in assay [2]. In addition, the EC50 in assay [3] is 4.43 nM.

Regarding `Cn1cc2c3c(c[nH]c3c1=O)CN(C(C#N)c1ccccc1)c1ccc(CS(C)(=O)=O)cc1-2` (stereo not shown) [Example 261], the Ki in assay [1] worked out at 9.32 nM; in assay [2], 7.78 nM. Besides, in assay [3], the EC50 is above 1000 nM.

For `Cn1cc2c3c(c(C(=O)O)[nH]c3c1=O)CN(c1ccc(F)cc1F)c1ccc(CS(C)(=O)=O)cc1-2` [Example 263, 4-(2,4-difluorophenyl)-10-methyl-7-((methylsulfonyl)methyl)-11-oxo-3,4,10,11-tetrahydro-1H-1,4,10-triazadibenzo[cd,f]azulene-2-carboxylic acid], the inhibition constant Ki in assay [1] is 7.04 nM; in assay [2], 8.07 nM. Further, in assay [3], the EC50 was above 1000 nM.

As for `Cn1cc2c3c(c[nH]c3c1=O)CN(Cc1ccccc1OCc1ccccn1)c1ccc(CS(C)(=O)=O)cc1-2` [Example 264, 10-methyl-7-((methylsulfonyl)methyl)-4-(2-(pyridin-2-ylmethoxy)benzyl)-3,4-dihydro-1H-1,4,10-triazadibenzo[cd,f]azulen-11(10H)-one], the Ki in assay [1] amounted to 6.97 nM; in assay [2], 1.53 nM. In assay [3], the EC50 was 899 nM.

Regarding `CCS(=O)(=O)c1ccc2c(c1)-c1cn(C)c(=O)c3[nH]cc(c13)CN2[C@H](C)c1ccccc1` [Example 265, (R)-7-(ethylsulfonyl)-10-methyl-4-(1-phenylethyl)-3,4-dihydro-1H-1,4,10-triazadibenzo[cd,f]azulen-11(10H)-one], the Ki in assay [1] was 25.6 nM; in assay [2], 4.21 nM. Moreover, in assay [3], the EC50 worked out at 170 nM.

Take `Cn1cc(-c2[nH]c3c(=O)n(C)cc4c3c2CN(c2ccc(F)cc2F)c2ccc(S(C)(=O)=O)cc2-4)cn1` [Example 270, 4-(2,4-difluorophenyl)-10-methyl-2-(1-methyl-1H-pyrazol-4-yl)-7-(methylsulfonyl)-3,4-dihydro-1H-1,4,10-triazadibenzo[cd,f]azulen-11(10H)-one]: the Ki was found to be 11 nM in assay [1] and 3.35 nM in assay [2]. For the same molecule, the EC50 in assay [3] is 80.7 nM.

As to “N-(4-(4-fluorophenyl)-10-methyl-11-oxo-3,4,10,11-tetrahydro-1H-1,4,5,10-tetraazadibenzo[cd,f]azulen-7-yl)ethanesulfonamide [Example 22]”, the Ki in assay [1] worked out at 0.875 nM; in assay [2], 0.95 nM. In addition, the EC50 in assay [3] turned out to be 1.71 nM.

Turning to “tert-butyl 4-(4-(4-fluorophenyl)-10-methyl-7-((methylsulfonyl)methyl)-11-oxo-3,4,10,11-tetrahydro-1H-1,4,10-triazadibenzo[cd,f]azulene-3-carbonyl)piperazine-1-carboxylate [Example 35]”, the Ki in assay [1] came out at 35.5 nM; in assay [2], 95.1 nM. Besides, in assay [3], the EC50 is 331 nM.
